# Columns and labels:
# [1] = molecular target: CYP3A4 (C377/C468 mutant) (Homo sapiens, UniProt P08684, form not given/S18F); assay: Ligand-induced spin shift, absorbance titration; format: binding; settings: human, purified CYP3A4(C377/C468) mutant protein, pH 7.4
# Protocol: (§1) All absorbance and fluorescence assays (including the time-resolved fluorescence measurements) were performed at a protein concentration ≤1 µM at 25°C with continuous stirring. Absorbance spectra were recorded with an S2000 rapid scanning CCD spectrometer (Ocean Optics). Ligand binding assays were done in 100 mM Na-Hepes buffer, pH 7.4, containing 0.5 mM EDTA.
# (§2) Absorbance spectra obtained in titration experiments were analyzed with a principal component analysis (PCA) procedure complemented with least-square approximation of the principal vectors with a combination of the prototypical spectra of the CYP3A4 low-spin, high-spin and Type II-substrate-bound ferric CYP3A4 P450 states as described, [31].
# (§3) When fitting the results of titration experiments, where the changes in the monitored signal A S (fraction of the enzyme in the high-spin state, intensity or the lifetime of the donor phosphorescence at a given substrate concentration) were assumed to be proportional to [ES], this equation was complemented with the offset A 0 and the scaling factor A max to yield the following relationship: [drawing 5] (Eq.5)
# [2] = molecular target: CYP3A4 (double-labeled C64/C468-ER/DY) (Homo sapiens, UniProt P08684, form not given/S18F); assay: Ligand-induced spin shift, absorbance titration; format: binding; settings: human, purified double-labeled CYP3A4 C64/C468-ER/DY protein, pH 7.4
# Chain of CYP3A4 (double-labeled C64/C468-ER/DY) (P08684 13-503 S18F, form open): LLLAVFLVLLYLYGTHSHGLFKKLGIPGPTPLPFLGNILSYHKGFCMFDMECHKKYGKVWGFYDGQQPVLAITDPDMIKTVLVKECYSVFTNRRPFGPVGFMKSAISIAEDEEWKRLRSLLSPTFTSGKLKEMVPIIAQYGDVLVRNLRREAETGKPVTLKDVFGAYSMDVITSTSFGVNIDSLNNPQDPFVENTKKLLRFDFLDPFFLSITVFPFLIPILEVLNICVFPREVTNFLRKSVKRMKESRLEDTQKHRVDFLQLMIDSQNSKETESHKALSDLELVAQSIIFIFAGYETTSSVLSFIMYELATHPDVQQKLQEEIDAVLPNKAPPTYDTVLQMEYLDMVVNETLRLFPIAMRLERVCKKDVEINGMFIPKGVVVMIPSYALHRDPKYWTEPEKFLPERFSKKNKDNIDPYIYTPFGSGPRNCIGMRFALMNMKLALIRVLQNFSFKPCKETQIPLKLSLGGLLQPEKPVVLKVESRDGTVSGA
# Protocol: as §1, §2, §3
# CYP3A4 (C64/C468 mutant) = CYP3A4 (C64/C468 mutant) (Homo sapiens, UniProt P08684, form not given/S18F); assay: Ligand-induced spin shift, absorbance titration; format: binding; settings: human, purified CYP3A4(C64/C468) mutant protein, pH 7.4
# Chain of CYP3A4 (C64/C468 mutant) (P08684 13-503 S18F, form open): as above
# Protocol: as §1, §2, §3
# [3] = molecular target: T1, double-labeled CYP3A4 C64/C121-DY/ER (Homo sapiens, UniProt P08684, A121C/C239S/C377S/C468A/C98S/S18F); assay: Steady-state LRET titration (delayed emission); settings: Table S2; protein C64/C121-ER/DY; same ligand concentrations
# T1 sequence (P08684 with tags, fused parts or gaps S18F/C98S/A121C/C239S/C377S/C468A limits assumed): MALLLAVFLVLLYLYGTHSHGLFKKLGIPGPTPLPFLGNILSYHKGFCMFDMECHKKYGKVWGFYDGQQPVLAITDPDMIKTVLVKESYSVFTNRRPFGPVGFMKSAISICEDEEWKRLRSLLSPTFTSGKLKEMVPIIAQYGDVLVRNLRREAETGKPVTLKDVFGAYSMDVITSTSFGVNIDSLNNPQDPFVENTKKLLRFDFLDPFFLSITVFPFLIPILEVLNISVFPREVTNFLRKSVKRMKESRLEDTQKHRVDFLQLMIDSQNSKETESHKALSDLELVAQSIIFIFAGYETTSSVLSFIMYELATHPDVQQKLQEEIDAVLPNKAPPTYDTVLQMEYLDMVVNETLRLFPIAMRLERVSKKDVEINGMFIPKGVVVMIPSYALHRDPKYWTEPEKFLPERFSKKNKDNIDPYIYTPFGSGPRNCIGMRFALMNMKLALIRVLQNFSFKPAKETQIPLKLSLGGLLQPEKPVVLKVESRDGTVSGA
# Protocol: as §1
# (§4) Fluorescence-based ligand binding assays were done under anaerobic conditions. Anaerobiosis was achieved using an oxygen-scavenging system consisting of protecatechuate-3,4-dioxygenase (0.5 units/ml) and 5 mM protocatechuic acid. The steady state and time-resolved phosphorescence measurements were performed with the use of a Cary Eclipse fluorescence spectrophotometer (Varian/Agilent Technologies). The excitation wavelength was set to 540 nm. Spectra were taken from 650 to 860 nm with 100 µs delay.
# (§5) Quantitative interpretation of LRET results was also based on the use of PCA applied to a series of emission spectra normalized on integral intensity. […] Intensity of the donor and acceptor fluorescence obtained in this way were used in determination of the efficiency of steady-state LRET using the equation [drawing 1] (Eq.1) where I ad is emission intensity of the acceptor, I da is the residual donor emission in the presence of acceptor (I da), Φ a and Φ d are the quantum yield of the fluorescence of acceptor and the quantum yield of the phosphorescence of donor, respectively.
# (§6) Distances were calculated using the equation: [drawing 3] (Eq.3) where R 0 is the Förster distance, and R is the distance between the donor and acceptor. R 0 was calculated with the use of PhotoChemCad software. In these calculations, we used the values of the orientation factor (κ^2) and the refractive index (n) of 0.667 and 1.4, respectively.
# as §3
# [4] = molecular target: T2, double-labeled CYP3A4 (C64/C468)-DY/ER (Homo sapiens, UniProt P08684, S18F, form not given); assay: Steady-state LRET titration (delayed emission); format: binding
# T2 sequence (P08684 13-503 S18F, form open): as the sequence (P08684 13-503 S18F, form open) above
# Protocol: as §1, §4, §5, §6, §3
# [5] = molecular target: CYP3A4 (double-labeled (C64/C468)-ER/DY) (Homo sapiens, UniProt P08684, form not given/S18F); assay: Steady-state LRET titration (delayed emission); format: binding; settings: human, purified double-labeled CYP3A4 C64/C468-ER/DY protein, pH 7.4
# Chain of CYP3A4 (double-labeled (C64/C468)-ER/DY) (P08684 13-503 S18F, form open): as above
# Protocol: as §1, §4, §5, §6, §3
# [6] = molecular target: T3, double-labeled CYP3A4 C377/C468-DY/ER (Homo sapiens, UniProt P08684, S18F, form not given); assay: Steady-state LRET titration (delayed emission); format: binding; settings: Table S2; protein C377/C468-ER/DY; same ligand concentrations
# T3 sequence (P08684 13-503 S18F, form open): as above
# Protocol: as §1, §4, §5, §6, §3
# [7] = molecular target: T4, double-labeled CYP3A4 (C64/C468)-ER/DY (Homo sapiens, UniProt P08684, S18F, form not given); assay: Steady-state LRET titration (delayed emission); format: binding
# T4 sequence (P08684 13-503 S18F, form open): as above
# Protocol: as §1, §4, §5, §6, §3
# [8] = molecular target: CYP3A4 (double-labeled (C64/C468)-DY/ER) (Homo sapiens, UniProt P08684, form not given/S18F); assay: Steady-state LRET titration (delayed emission); format: binding; settings: human, purified double-labeled CYP3A4 C64/C468-DY/ER protein, pH 7.4
# Chain of CYP3A4 (double-labeled (C64/C468)-DY/ER) (P08684 13-503 S18F, form open): as above
# Protocol: as §1, §4, §5, §6, §3
# [9] = molecular target: T1, double-labeled CYP3A4 C64/C121-DY/ER; assay: Time-resolved LRET (phosphorescence lifetime measurements)
# Protocol: as §1, §4
# The treatment of the time-resolved decay traces was performed using a bi-exponential approximation. The efficiency of time-resolved LRET was calculated using the equation [drawing 2] (Eq.2)
# In this equation τda and τd designate the average lifetime of the excited state of the donor in the presence and absence of the acceptor, respectively. These average lifetimes are determined as τ = α1τ1+α2τ2, where τ1,2 and α1,2 stay for the lifetime and the relative amplitude of each of the two exponential terms. In our calculations of the lifetime in double-labeled C64/C468, C377/C468 and C64/C121 proteins we used the lifetimes of phosphorescence measured with the respective proteins labeled with ERIA at a label:protein ratio 2∶1 as the estimates of τd.
# as §6
# [10] = molecular target: T2, double-labeled CYP3A4 (C64/C468)-DY/ER; assay: as above
# Description: (§7) The excitation wavelength was set to 540 nm.
# [11] = molecular target: T3, double-labeled CYP3A4 C377/C468-DY/ER; assay: as above
# Description: as §7
# [12] = molecular target: T4, double-labeled CYP3A4 (C64/C468)-ER/DY; assay: as above
# Description: as §7
# [13] = Table S2, C64/C468-DY/ER, same ligand concentrations
# [14] = Table S2, C64/C468-ER/DY, same ligand concentrations
# [15] = Table S1, protein (C64/C121)-ER/DY, same ligand concentrations
# [16] = Table S2, protein C64/C121-ER/DY, same ligand concentrations
# [17] = Table S1, (C64/C468)-DY/ER, same ligand concentrations
# [18] = Table S1, protein (C377/C468)-ER/DY, same ligand concentrations
# [19] = Table S2, protein C377/C468-ER/DY, same ligand concentrations
# [20] = Table S1, (C64/C468)-ER/DY, same ligand concentrations
# Chain of CYP3A4 (C377/C468 mutant) (P08684 13-503 S18F, form open): as above
smiles,measurement,setting,value
"C[C@]12CC[C@H]3[C@@H](CCC4=CC(=O)CC[C@@]43C)[C@@H]1CC[C@@H]2O [Testosterone, testosterone]",Kd,[1],51 ± 8 µM
same,Kd,[2],38 ± 6 µM
same,Kd,CYP3A4 (C64/C468 mutant),39 ± 10 µM
same,"R (interprobe distance with ligand), steady-state measurements",[3],43.9 ± 0.5 Å
same,"ΔR, steady-state measurements",[3],1.3 ± 0.5 Å
same,"ΔR (change in interprobe distance), steady-state fluorescence",[4]; (C64/C468)-DY/ER,5.5±1.9 Å
same,"R (interprobe distance with ligand), steady-state measurements",[4]; [13],40.4 ± 1.9 Å
same,"ΔR, steady-state measurements",[4]; [13],5.5 ± 1.9 Å
same,Kd,[5],22.8 ± 3.6 µM
same,"R (interprobe distance with ligand), steady-state measurements",[6],46.7 ± 0.7 Å
same,"ΔR, steady-state measurements",[6],2.0 ± 0.7 Å
same,"ΔR (change in interprobe distance), steady-state fluorescence",[7]; (C64/C468)-ER/DY,3.1±1.0 Å
same,"R (interprobe distance with ligand), steady-state measurements",[7]; [14],42.2 ± 1.0 Å
same,"ΔR, steady-state measurements",[7]; [14],3.1 ± 1.0 Å
same,Kd,[8],16.4 ± 3.5 µM
same,τ1 (phosphorescence decay time with ligand),"[9]; Table S1, protein (C64/C121)-ER/DY, 1-PB 40 µM, ANF 100 µM, BCT 2.5 µM, cholesterol 100 µM, testosterone 100 µM, bi-exponential fit",66 ± 9 µs
same,F1 (fraction of first exponential),[9]; [15],38 ± 4%
same,τ2 (phosphorescence decay time with ligand),[9]; [15],228 ± 23 µs
same,τav (average phosphorescence lifetime with ligand),[9]; [15],165 ± 9 µs
same,"R (interprobe distance with ligand), lifetime measurements",[9]; [16],36.9 ± 0.7 Å
same,"ΔR, lifetime measurements",[9]; [16],1.9 ± 0.7 Å
same,τ1 (phosphorescence decay time with ligand),"[10]; Table S1, (C64/C468)-DY/ER, 1-PB 40 µM, ANF 100 µM, BCT 2.5 µM, cholesterol 100 µM, testosterone 100 µM, bi-exponential fit",69 ± 1 µs
same,F1 (fraction of first exponential),[10]; [17],39 ± 8%
same,τ2 (phosphorescence decay time with ligand),[10]; [17],247 ± 2 µs
same,τav (average phosphorescence lifetime with ligand),[10]; [17],176 ± 2 µs
same,"R (interprobe distance with ligand), lifetime measurements",[10]; [13],41.6 ± 0.3 Å
same,"ΔR, lifetime measurements",[10]; [13],4.8 ± 0.3 Å
same,τ1 (phosphorescence decay time with ligand),"[11]; Table S1, protein (C377/C468)-ER/DY, 1-PB 40 µM, ANF 100 µM, BCT 2.5 µM, cholesterol 100 µM, testosterone 100 µM, bi-exponential fit",42 ± 9 µs
same,F1 (fraction of first exponential),[11]; [18],26 ± 7%
same,τ2 (phosphorescence decay time with ligand),[11]; [18],193 ± 5 µs
same,τav (average phosphorescence lifetime with ligand),[11]; [18],152 ± 12 µs
same,"R (interprobe distance with ligand), lifetime measurements",[11]; [19],45.3 ± 3.0 Å
same,"ΔR, lifetime measurements",[11]; [19],8.5 ± 3.0 Å
same,"ΔR (change in interprobe distance), lifetime measurements","[12]; (C64/C468)-ER/DY, nearly-saturating ligand: ANF 100 µM, bromocriptine 2.5 µM, cholesterol 50 µM, testosterone 100 µM",4.5±0.5 Å
same,τ1 (phosphorescence decay time with ligand),"[12]; Table S1, (C64/C468)-ER/DY, 1-PB 40 µM, ANF 100 µM, BCT 2.5 µM, cholesterol 100 µM, testosterone 100 µM, bi-exponential fit",67 ± 6 µs
same,F1 (fraction of first exponential),[12]; [20],48 ± 2%
same,τ2 (phosphorescence decay time with ligand),[12]; [20],267 ± 11 µs
same,τav (average phosphorescence lifetime with ligand),[12]; [20],171 ± 4 µs
same,"R (interprobe distance with ligand), lifetime measurements",[12]; [14],40.8 ± 0.6 Å
same,"ΔR, lifetime measurements",[12]; [14],4.5 ± 0.6 Å
